pIC50: −log10 of the molar value. Each block holds one compound with its values, some of them ahead of it. Calls of active or inactive are those of the source. No cut-off for these calls is given here.
Key:
[1] = Antiproliferative activity against human ALL5 cells at 10 uM after 120 hrs by MTT assay relative to control; type: functional
LoVo [2] = test: Antiproliferative activity against human LoVo cells after 72 hrs by SRB assay; type: functional, cell-based
MCF7 = test: Antiproliferative activity against human MCF7 cells after 72 hrs by SRB assay; type: functional, cell-based; details: MCF7, 72 h
[3] = Antiproliferative activity against human LoVo/DX cells after 72 hrs by SRB assay; type: functional, cell-based
SK-BR-3 [4] = test: Antiproliferative activity against human SK-BR-3 cells at 100 ug/ml after 72 hrs by SRB assay relative to control; type: functional
JIMT-1 [5] = test: Antiproliferative activity against human JIMT1 cells after 72 hrs by SRB assay; type: functional, cell-based; details: JIMT-1, 72 h
[6] = Resistance index, ratio of IC50 for human LoVo/DX cells to IC50 for human LoVo cells; type: functional
MCF-10A [7] = test: Antiproliferative activity against human MCF10A cells at 100 ug/ml after 72 hrs by SRB assay relative to control; type: cell-based
SK-BR-3 [8] = test: Antiproliferative activity against human SK-BR-3 cells after 72 hrs by SRB assay; type: functional, cell-based; details: SK-BR-3, 72 h
[9] = Selectivity index, ratio of IC50 for human MCF10A cells to IC50 for human SK-BR-3 cells; type: toxicity; details: MCF10A cells versus SK-BR-3 cells, read-out: Ratio IC50
[10] = Selectivity index, ratio of IC50 for human MCF10A cells to IC50 for human JIMT1 cells; type: toxicity; details: MCF10A cells versus JIMT1 cells, read-out: Ratio IC50
[11] = Selectivity index, ratio of IC50 for human MCF10A cells to IC50 for human MCF7 cells; type: toxicity; details: MCF10A cells versus MCF7 cells, read-out: Ratio IC50
[12] = Selectivity index, ratio of IC50 for human MCF10A cells to IC50 for human LoVo cells; type: toxicity; details: MCF10A cells versus LoVo cells, read-out: Ratio IC50
MCF-10A [13] = test: Antiproliferative activity against human MCF10A cells after 72 hrs by SRB assay; type: cell-based
[14] = Selectivity index, ratio of IC50 for human MCF10A cells to IC50 for human LoVo/DX cells; type: toxicity; details: MCF10A cells versus LoVo/DX cells, read-out: Ratio IC50
[15] = Cell cycle arrest in human ALL5 cells assessed as accumulation at S-phase at 5 times antiproliferative IC50 after 48 hrs by propidium iodide staining based flow cytometry (reference value: 9.82%); type: functional
[16] = Cell cycle arrest in human ALL5 cells assessed as accumulation at S-phase at 5 times antiproliferative IC50 after 96 hrs by propidium iodide staining based flow cytometry (reference value: 7.52%); type: functional
[17] = Cell cycle arrest in human ALL5 cells assessed as accumulation at sub-G1 phase at 5 times antiproliferative IC50 after 48 hrs by propidium iodide staining based flow cytometry (reference value: 7.8%); type: functional
[18] = Cell cycle arrest in human ALL5 cells assessed as accumulation at G2/M-phase at 5 times antiproliferative IC50 after 24 hrs by propidium iodide staining based flow cytometry (reference value: 7.98%); type: functional
[19] = Cell cycle arrest in human ALL5 cells assessed as accumulation at sub-G1 phase at 5 times antiproliferative IC50 after 24 hrs by propidium iodide staining based flow cytometry (reference value: 6.07%); type: functional
[20] = Cell cycle arrest in human ALL5 cells assessed as accumulation at sub-G1 phase at 5 times antiproliferative IC50 after 96 hrs by propidium iodide staining based flow cytometry (reference value: 12%); type: functional
[21] = Cell cycle arrest in human ALL5 cells assessed as accumulation at G2/M-phase at 5 times antiproliferative IC50 after 48 hrs by propidium iodide staining based flow cytometry (reference value: 13.2%); type: functional
[22] = Cell cycle arrest in human ALL5 cells assessed as accumulation at G2/M-phase at 5 times antiproliferative IC50 after 96 hrs by propidium iodide staining based flow cytometry (reference value: 11.1%); type: functional
[23] = Antiproliferative activity against human ALL5 cells after 120 hrs by MTT assay; type: functional, cell-based; details: ALL5, 120 h
[24] = Cell cycle arrest in human ALL5 cells assessed as accumulation at S-phase at 5 times antiproliferative IC50 after 24 hrs by propidium iodide staining based flow cytometry (reference value: 6.76%); type: functional
[25] = Cell cycle arrest in human ALL5 cells assessed as accumulation at G0/G1 phase at 5 times antiproliferative IC50 after 48 hrs by propidium iodide staining based flow cytometry (reference value: 69.6%); type: functional
[26] = Cell cycle arrest in human ALL5 cells assessed as accumulation at G0/G1 phase at 5 times antiproliferative IC50 after 24 hrs by propidium iodide staining based flow cytometry (reference value: 79.7%); type: functional
[27] = Cell cycle arrest in human ALL5 cells assessed as accumulation at G0/G1 phase at 5 times antiproliferative IC50 after 96 hrs by propidium iodide staining based flow cytometry (reference value: 69.8%); type: functional
Homo sapiens [28] = organism: Homo sapiens; test: Induction of apoptosis in human ALL5 cells assessed as increase in cleaved PARP expression at 9.5 uM after 96 hrs by immunoblot analysis; type: functional, cell-based
LoVo [29] = test: Antiproliferative activity against human LoVo cells at 100 ug/ml after 72 hrs by SRB assay relative to control; type: functional
Homo sapiens [30] = organism: Homo sapiens; test: Induction of apoptosis in human ALL5 cells assessed as increase in p53 expression at 9.5 uM up to 96 hrs by immunoblot analysis; type: functional, cell-based
Homo sapiens [31] = organism: Homo sapiens; test: Induction of apoptosis in human ALL5 cells assessed as increase in cleaved PARP expression at 9.5 uM up to 48 hrs by immunoblot analysis; type: functional, cell-based
JIMT-1 [32] = test: Antiproliferative activity against human JIMT1 cells at 100 ug/ml after 72 hrs by SRB assay relative to control; type: functional

pIC50 (LoVo [2]): 5.06 | pIC50 (MCF7): 4.92
Compound: CC[C@@H](C(=O)[C@@H](C)[C@@H](O)[C@H](C)[C@@H]1O[C@@H]([C@@H](CC)C(=O)OCC(F)(F)F)CC[C@@H]1C)[C@H]1O[C@]2(C=C[C@@H](OC(C)=O)[C@]3(CC[C@@](C)([C@H]4CC[C@](O)(CC)[C@H](C)O4)O3)O2)[C@H](C)C[C@@H]1C
Activity [1]: <=50% | pIC50 [3]: 4.74 | Activity (SK-BR-3 [4]): <=50% | pIC50 (JIMT-1 [5]): 4.41 | Ratio IC50 [6]: 2.1 | Activity (MCF-10A [7]): <= 50%

pIC50 (SK-BR-3 [8]): 4.51 | pIC50 (LoVo [2]): 5.11 | pIC50 (MCF7): 5.00
Compound: C#CCNC(=O)[C@H](CC)[C@H]1CC[C@H](C)[C@H]([C@@H](C)[C@H](O)[C@H](C)C(=O)[C@H](CC)[C@H]2O[C@]3(C=C[C@@H](O)[C@]4(CC[C@@](C)([C@H]5CC[C@](O)(CC)[C@H](C)O5)O4)O3)[C@H](C)C[C@@H]2C)O1
Activity [1]: <=50% | selectivity ratio [9]: 2 | pIC50 [3]: 5.51 | selectivity ratio [10]: 2.1 | pIC50 (JIMT-1 [5]): 4.54 | selectivity ratio [11]: 6.2 | selectivity ratio [12]: 8.1 | Ratio IC50 [6]: 0.4 | pIC50 (MCF-10A [13]): 4.21 | selectivity ratio [14]: 20

pIC50 (SK-BR-3 [8]): 5.00 | pIC50 (LoVo [2]): 5.33 | pIC50 (MCF7): 5.41
Compound: CCOC(=O)O[C@@H]1C=C[C@]2(O[C@H]([C@@H](CC)C(=O)[C@@H](C)[C@@H](O)[C@H](C)[C@@H]3O[C@@H]([C@@H](CC)C(=O)NCCc4ccc(F)cc4)CC[C@@H]3C)[C@@H](C)C[C@H]2C)O[C@@]12CC[C@@](C)([C@H]1CC[C@](O)(CC)[C@H](C)O1)O2
Activity [15]: 1.02% | Activity [16]: 1.35% | Activity [17]: 7.78% | Activity [18]: 6.54% | Activity [19]: 6.39% | Activity [20]: 27.5% | Activity [21]: 4.85% | pIC50 [3]: 5.19 | pIC50 (JIMT-1 [5]): 5.15 | Activity [22]: 1.94% | pIC50 [23]: 5.43 | Activity [24]: 4.95% | Activity [25]: 86.4% | Ratio IC50 [6]: 1.4 | Activity [26]: 82.5% | Activity [27]: 69.4% | Activity (MCF-10A [7]): <= 50%

pIC50 (MCF7): 4.42
Compound: C#CCOC(=O)[C@H](CC)[C@H]1CC[C@H](C)[C@H]([C@@H](C)[C@H](O)[C@H](C)C(=O)[C@H](CC)[C@H]2O[C@]3(C=C[C@@H](OC(=O)OCC)[C@]4(CC[C@@](C)([C@H]5CC[C@](O)(CC)[C@H](C)O5)O4)O3)[C@H](C)C[C@@H]2C)O1
Activity [15]: 5.9% | Activity [16]: 5.03% | Activity [17]: 10.6% | Activity [18]: 8.79% | Activity [19]: 4.82% | Activity (Homo sapiens [28]): Active | Activity [20]: 19.8% | Activity [21]: 8.29% | pIC50 [3]: 5.09 | Activity (LoVo [29]): <=50% | Activity (SK-BR-3 [4]): <=50% | Activity (Homo sapiens [30]): Active | Activity [22]: 7.59% | pIC50 [23]: 5.72 | Activity [24]: 5.6% | Activity [25]: 75.6% | Activity (Homo sapiens [31]): inactive | Activity (JIMT-1 [32]): <=50% | Activity [26]: 81.2% | Activity [27]: 67.8% | Activity (MCF-10A [7]): <= 50%

— ChEMBL document CHEMBL4270561, “Biological activity of doubly modified salinomycin analogs - Evaluation in vitro and ex vivo” (Eur J Med Chem, 2018)
